# Measurements taken from publication PMC12974487, “Inhibition of FicD-mediated AMPylation and deAMPylation by isoprenoid diphosphates” (Proceedings of the National Academy of Sciences of the …, 2026).
# Positions count from the first letter of the chain named.
# How the values were obtained:
# FicD^WT = molecular target: T1, FicD^WT (Homo sapiens, UniProt Q9BVA6); assay: MIDAS equilibrium dialysis/mass spectrometry metabolite screen, FicD^WT; assay type: binding; conditions: cutoff Q < 0.05 and |Log2 corrected fold change| > 2, metabolites 5 µM
# T1 construct: soluble ER luminal domain (residues 105 to 458) of wild-type human FicD; 6xHis-Sumo (N, cleaved yes); made in house; host or cells: Rosetta(DE3) E. coli
# T1 sequence (Q9BVA6 105-458): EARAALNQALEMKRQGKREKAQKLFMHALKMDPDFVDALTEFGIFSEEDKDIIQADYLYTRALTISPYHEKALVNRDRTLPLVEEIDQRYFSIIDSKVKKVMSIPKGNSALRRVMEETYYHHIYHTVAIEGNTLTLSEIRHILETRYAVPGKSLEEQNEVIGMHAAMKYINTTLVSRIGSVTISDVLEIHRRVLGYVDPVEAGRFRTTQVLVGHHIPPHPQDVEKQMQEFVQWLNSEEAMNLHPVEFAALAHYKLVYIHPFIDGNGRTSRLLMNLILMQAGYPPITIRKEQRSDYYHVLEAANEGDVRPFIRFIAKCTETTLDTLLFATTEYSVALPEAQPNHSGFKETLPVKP
# FicD^E234G = molecular target: T2, FicD^E234G (Homo sapiens, UniProt Q9BVA6, E234G); assay: MIDAS metabolite screen, FicD^E234G; assay type: binding; conditions: cutoff Q < 0.05 and |Log2 corrected fold change| > 2, metabolites 5 µM
# T2 construct: soluble ER luminal domain (residues 105 to 458) of wild-type human FicD and three mutants; 6xHis-Sumo (N, cleaved yes); made in house; host or cells: Rosetta(DE3) E. coli
# T2 sequence (Q9BVA6 105-458 E234G): T1 sequence (Q9BVA6 105-458) with E130G
# FicD^L258D = molecular target: T3, FicD^L258D (Homo sapiens, UniProt Q9BVA6, L258D); assay: MIDAS metabolite screen, FicD^L258D; assay type: binding; conditions: cutoff Q < 0.05 and |Log2 corrected fold change| > 2, metabolites 5 µM
# T3 construct: soluble ER luminal domain (residues 105 to 458) of wild-type human FicD and three mutants; 6xHis-Sumo (N, cleaved yes); made in house; host or cells: Rosetta(DE3) E. coli
# T3 sequence (Q9BVA6 105-458 L258D): T1 sequence (Q9BVA6 105-458) with L154D
# Text: (§1) To identify small-molecule metabolite interactions with FicD, we applied an unbiased high-throughput screening approach known as MIDAS ([44]). Given the high concentrations of protein required for MIDAS screening, we purified the soluble ER luminal domain (residues 105 to 458) of wild-type human FicD and three mutants FicD^E234G, FicD^L258D, and FicD^H363A for screening (Fig. 1A). These mutants were selected based on their well-established biochemical features ([23], [24], [31]). All three are predicted to enhance detection of protein–metabolite interactions (PMIs) relative to FicD^WT through increased affinity for nucleotide substrates (FicD^E234G), improved solubility (FicD^L258D), and loss of catalytic turnover (FicD^H363A) (Fig. 1A). To decrease the potential for nonspecific small-molecule binding, we ensured the purity of our FicD proteins (SI Appendix, Fig. S1 A and B). As reported by other investigators ([24], [31]), we observe an increase in elution volume of the FicD^L258D mutant, consistent with its monomerization (SI Appendix, Fig. S1C).
# (§2) Out of the 602 naturally occurring human metabolites in the MIDAS library, we applied a significance cutoff (q value < 0.05) to identify 12 PMIs with a Log2 (corrected fold change) of >2 and two PMIs with a Log2 (corrected fold change) <-2 in the FicD^WT screen (Fig. 1B and SI Appendix, Table S2). Hits were additionally triaged based on detection of multiple adducts of the metabolite in a single dataset (FPP and […] in Fig. 1B) and identification of the same metabolites across three or more of the FicD construct screens (Fig. 1C). Three chemical classes passed this initial triage: adenosine nucleotides, isoprenoid diphosphates, and thyroid hormone intermediates (Fig. 1 B and C and SI Appendix, Tables S2–S5).
# (§3) 22°C. Induced cultures were then harvested by centrifugation at 8000G for 15 minutes at 4°C and […]
# (§4) Bacterial pellets were resuspended in 30-50mL of 50mM Tris pH 7.4/150mM NaCl/10% glycerol with one Roche cOmplete EDTA-Free Protease inhibitor cocktail tablet (cat no. COEDTAF-RO).
# (§5) Triton-X100 to a final concentration of 0.2%, Chicken-egg lysozyme to a final concentration of 0.4ug/mL, and 2-5uL of Millipore Benzonase Nuclease (cat no. 70664) were added to bacterial suspension prior to sonication at 40-50% amplitude for 1-3 minutes in pulses of 5 seconds on and 30 seconds off on ice with a Sonics VCX 750 Ultrasonicator. Bacterial lysate was then clarified by centrifugation at 30,000 x g for 30 minutes at 4°C.
# Clarified lysate was rotated with Qiagen NiNTA agarose beads (cat no. 30210) for 1-2 hours at 4°C. The beads were then transferred to a 15mL conical vial, resuspended in 10-15mL wash buffer (50mM Tris pH 7.4/150mM NaCl/10% glycerol/0.2% Triton-X 100/10mM imidazole), and spun down at 1000G for 1 minute at 4°C, after which the supernatant was aspirated from the beads. This washing step was repeated 2-4 times to rinse bacterial lysate from the beads prior to on-column washing. The beads were then transferred to BioRad Econopac 20mL bed volume column (cat no.
# 7321010) and washed with 10-15mL of wash buffer (repeated at least three times), 10mL of ATP wash (50mM Tris pH 7.4/300mM KCl/10mM MgCl2/500uM ATP, repeated once), and finally with 10-15mL wash buffer without Triton-X 100 (repeated at least three times). Protein was eluted in 500μL-1mL elution buffer (50mM Tris pH 7.5/150mM NaCl/10% glycerol/0.5% CHAPS). […]
# FicD^H363A = molecular target: T4, FicD^H363A (Homo sapiens, UniProt Q9BVA6, H363A); assay: MIDAS metabolite screen, FicD^H363A; assay type: binding; conditions: cutoff Q < 0.05 and |Log2 corrected fold change| > 2, metabolites 5 µM
# T4 construct: soluble ER luminal domain (residues 105 to 458) of wild-type human FicD and three mutants; 6xHis-Sumo (N, cleaved yes); made in house; host or cells: Rosetta(DE3) E. coli
# T4 sequence (Q9BVA6 105-458 H363A): T1 sequence (Q9BVA6 105-458) with H259A
# Text: as §1, §2, §3, §4, §5
# Clarified lysate was rotated with Qiagen NiNTA agarose beads (cat no. 30210) for 1-2 hours at 4°C. […]
# FicD = tested on: FicD; parameters: method as in PMID 40036289; conditions: cited from earlier work
SMILES,MIDAS protein-metabolite interaction (enrichment/depletion) (FicD^WT),MIDAS protein-metabolite interaction (enrichment/depletion) (FicD^E234G),MIDAS protein-metabolite interaction (enrichment/depletion) (FicD^L258D),MIDAS protein-metabolite interaction (enrichment/depletion) (FicD^H363A),FicD inhibition reported in previous drug screens (FicD)
"N[C@@H](Cc1ccc(Oc2ccc(O)c(I)c2)c(I)c1)C(=O)O [3,3’-Diiodothyronine]",significantly enriched,significantly enriched,significantly enriched,significantly enriched,
N[C@@H](Cc1cc(I)c(Oc2ccc(O)c(I)c2)c(I)c1)C(=O)O [liothyronine],,,,,small-molecule inhibitor of FicD
